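96-well plates; 48 h exposure; 5 concentrations. Endpoints by linear interpolation between flanking doses. Not reached: highest tested concentration assigned. Here, GI50 denotes the concentration required for 50% inhibition of growth. At the TGI there is no net growth.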
What was measured:
Test in all cases: NCI anticancer screen, dose series, 48 h
COLO 205 colon = tested on: COLO 205 colon
DU-145 prostate = tested on: DU-145 prostate
RXF 393 renal = tested on: RXF 393 renal
MDA-MB-435 = tested on: MDA-MB-435
HCC-2998 colon = tested on: HCC-2998 colon
PC-3 prostate = tested on: PC-3 prostate
MCF7 breast = tested on: MCF7 breast
SF-539 CNS = tested on: SF-539 CNS
HOP-18 NSCLC = tested on: HOP-18 NSCLC
RXF-631 renal = tested on: RXF-631 renal
SNB-78 CNS = tested on: SNB-78 CNS
DLD-1 colon = tested on: DLD-1 colon

| Compound | TGI (COLO 205 colon) [µM] | TGI (DU-145 prostate) [µM] | TGI (RXF 393 renal) [µM] | TGI (MDA-MB-435) [µM] | TGI (HCC-2998 colon) [µM] | TGI (PC-3 prostate) [µM] | GI50 (MCF7 breast) [µM] | TGI (MCF7 breast) [µM] | GI50 (COLO 205 colon) [µM] | GI50 (DU-145 prostate) [µM] | GI50 (RXF 393 renal) [µM] | GI50 (SF-539 CNS) [µM] | TGI (SF-539 CNS) [µM] | GI50 (MDA-MB-435) [µM] | GI50 (HCC-2998 colon) [µM] | GI50 (PC-3 prostate) [µM] | TGI (HOP-18 NSCLC) [µM] | TGI (RXF-631 renal) [µM] | TGI (SNB-78 CNS) [µM] | TGI (DLD-1 colon) [µM] |
| --- | --- | --- | --- | --- | --- | --- | --- | --- | --- | --- | --- | --- | --- | --- | --- | --- | --- | --- | --- | --- |
| CC(=O)Oc1ccccc1[C@H]1CC(=O)C[C@H](c2ccccc2OC(C)=O)C12C(=O)c1ccccc1C2=O | 54.3 | > 100 | 93.4 | 31.6 | 85.4 | > 100 | – | – | – | – | – | – | – | – | – | – | – | – | – | – |
| O=C(c1ccccc1)c1nn(-c2ccc(Cl)cc2)c2nc3nc(-c4ccccc4)cc(=O)n3nc12 | > 100 | > 100 | > 100 | > 100 | 66.5 | > 100 | 40.9 | > 100 | 47.2 | 30.7 | 68.9 | 22.4 | 45.4 | 6.65 | 29.7 | 39.3 | – | – | – | – |
| COc1cc2cc(Oc3ccc(NC(=O)Nc4ccc(F)c(C(F)(F)F)c4)cc3)c(C)nc2cc1OCCN1CCCCC1 | – | 3.2 | – | 3.14 | – | 3.05 | – | – | – | 1.75 | – | 1.68 | 3.08 | 1.74 | – | 1.45 | – | – | – | – |
| CCOC(=O)c1c(O)[nH]c(=O)c(CC)c1C | > 100 | > 100 | > 100 | > 100 | > 100 | > 100 | – | > 100 | – | – | – | – | > 100 | – | – | – | – | – | – | – |
| CN(C)CCN1C(=O)CC[C@@]2(C)C1=CC[C@@H]1[C@@H]2CC[C@@]2(C)[C@H]1CC[C@]2(C)O | > 100 | > 100 | > 100 | > 100 | – | > 100 | – | > 100 | – | – | – | – | > 100 | – | – | – | – | – | – | – |
| CCOC(=O)c1ncoc1[C@H]1COC(C)(C)O1 | – | – | > 100 | – | > 100 | – | – | – | – | – | – | – | > 100 | – | – | – | > 100 | > 100 | > 100 | > 100 |
| O=C(O)C(CS)NCc1c2ccccc2[n+]([O-])c2ccccc12 (stereo not drawn) | > 100 | – | – | – | > 100 | – | – | – | – | – | – | – | – | – | – | – | > 100 | > 100 | > 100 | > 100 |
